Article PMC6006285, “Specific stereochemistry of OP-1074 disrupts estrogen receptor alpha helix 12 and confers pure antiestrogenic activity” (Nature Communications, 2018)
“And” between values parts separate entries of the source, which are not always exact repeats. Equal values may be shown once. Read-outs that look alike come from different tables or passages of the source.

Assays:
MCF7/HER2/neu tumors = tested on: MCF7/HER2/neu tumors
Protocol: MCF7/HER2/neu cells were grown in culture and implanted into 6–7 week athymic ovariectomized female nu/nu mice (Taconic Biosciences). To stimulate tumor growth, 0.18 mg estradiol 90 day release pellets (Innovative Research) were implanted along with cells. […] Tumor volume and bodyweight were measured twice weekly. At end of the study animals were euthanized, tumors resected and snap frozen in liquid nitrogen, and uteri were resected, weighed, and fixed in 10% formalin.

CAMA-1 cells = experiment: Inhibition of E2-stimulated proliferation of CAMA-1 cells; assay type: cell-based; details: Homo sapiens, CAMA-1, 192 h; read-out: CAMA-1 IC50 proliferation (Fig. 3c)
Protocol: Shown is a representative figure analyzed and presented as above. d, Western blot of destabilization of ERα protein by OP-1074.
Proliferation was measured using CyQuant fluorescent DNA-binding dye kit (ThermoFisher Scientific, #C7026) using 1:200 GR dye and reading fluorescence at 485 nm excitation and 538 nm emission on the Varioskan Lux multimodal plate reader.

MCF-7 cells = experiment: Inhibition of E2-stimulated proliferation of MCF-7 cells; assay type: cell-based; details: Homo sapiens
[1] = tested on: AP activity in Ishikawa uterine cells; experiment: Alkaline phosphatase (AP) assay, agonist mode (absence of E2); assay type: cell-based, human; details: for Induction of AP activity (% E2): Maximum AP activity observed relative to positive control, 500 pM E2, means of n independent experiments ±s.d.; for Maximal AP activity in agonist mode relative to E2 control: absence of E2, normalized to 500 pM E2, representative experiment (Fig. 2a)
Protocol: (§1) Our primary screen to distinguish pure antiestrogens from SERMs was induction of alkaline phosphatase (AP) activity in Ishikawa uterine cells. […] The reference SERM used in our screen was endoxifen (N-desmethyl-4-hydroxytamoxifen), the most abundant bioactive metabolite of tamoxifen.
(§2) Shown is a representative figure analyzed and presented as above.
(§3) At least 4 h later cells were treated with antiestrogens and media was diluted to 2.5% stripped FBS. Cells were incubated for 3 days, media removed and plates frozen at −80 °C. Thawed plates were incubated with a chromogenic substrate of AP, p-nitrophenyl phosphate (ThermoFisher Scientific, #36721), for 40–60 min at 40 °C, and absorbance read at 405 nm on the Varioskan Lux multimodal plate reader (ThermoFisher Scientific, #VLBL00D0).

[2] = tested on: E2-stimulated AP activity in Ishikawa cells; experiment: Alkaline phosphatase (AP) assay, antagonist mode (presence of 500 pM E2); assay type: cell-based, human; details: for Antagonism of E2-stimulated AP activity: 500 pM E2
Protocol: as §1, §2, §3

[3] = tested on: estrogen responsive reporter gene, ERE-tk109-Luc, in MCF-7 cells; experiment: Inhibition of E2-stimulated transcription of ERE-tk109-Luc reporter gene in MCF-7 cells; assay type: cell-based; details: Homo sapiens
uterus = details: cited from earlier work
AP = tested on: AP; parameters: method as in Holinka et al.; details: ref Holinka et al.; cited from earlier work
ERα = target: T1, ERα (Homo sapiens, UniProt P03372); experiment: ERα protein levels by immunoblotting; assay type: cell-based; details: MCF-7 cells, 100 nM ligand, 24 h, means of n experiments ±s.d.
T1 construct: endogenous in cells
T1 sequence (P03372 1-595): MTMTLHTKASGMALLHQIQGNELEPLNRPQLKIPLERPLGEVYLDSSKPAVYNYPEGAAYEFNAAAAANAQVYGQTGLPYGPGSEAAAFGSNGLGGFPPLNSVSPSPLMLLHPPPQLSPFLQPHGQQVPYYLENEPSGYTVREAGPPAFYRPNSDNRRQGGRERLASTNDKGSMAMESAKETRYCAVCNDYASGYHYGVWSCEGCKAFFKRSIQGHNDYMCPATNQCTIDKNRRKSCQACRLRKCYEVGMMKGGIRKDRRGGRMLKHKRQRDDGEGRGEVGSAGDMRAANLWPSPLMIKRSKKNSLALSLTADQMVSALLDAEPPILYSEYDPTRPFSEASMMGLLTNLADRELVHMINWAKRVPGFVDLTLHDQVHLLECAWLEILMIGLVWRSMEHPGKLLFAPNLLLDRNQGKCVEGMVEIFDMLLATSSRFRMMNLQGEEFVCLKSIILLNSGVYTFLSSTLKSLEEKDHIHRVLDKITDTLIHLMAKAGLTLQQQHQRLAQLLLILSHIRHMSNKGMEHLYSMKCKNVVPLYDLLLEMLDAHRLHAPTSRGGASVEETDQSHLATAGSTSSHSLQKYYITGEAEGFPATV
Protocol: However, it is conceivable that under some clinical contexts SERD activity may still be a desirable feature by reducing the number of functional receptors in tumors.
Imaging was performed on FluorChem Imager by Alpha Innotech. […] An uncropped image of the immunoblot is shown in Supplementary Fig. 5.

[4] = target: T2, Estrogen Receptor α LBD (ERα) (Homo sapiens, UniProt P03372); experiment: Competitive ligand binding assay with [3H]-E2; details: for IC50: 10 nM [3H]-E2 tracer, 2 nM biotinylated ERα LBD, representative experiment
T2 construct: 2 nM biotinylated Estrogen Receptor α LBD (ERα) was incubated; biotin (biotinylated)
T2 sequence (P03372 311-547 limits assumed): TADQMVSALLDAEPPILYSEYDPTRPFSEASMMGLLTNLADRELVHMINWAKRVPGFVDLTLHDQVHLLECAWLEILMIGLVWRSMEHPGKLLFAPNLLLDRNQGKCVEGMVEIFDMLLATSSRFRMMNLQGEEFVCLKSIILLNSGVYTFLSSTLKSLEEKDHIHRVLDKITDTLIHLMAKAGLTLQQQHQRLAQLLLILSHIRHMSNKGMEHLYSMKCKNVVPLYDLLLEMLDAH
Protocol: Experimental data points are mean + /− s.e.m. of triplicate samples in a representative experiment. […] Experimental data points are mean + /− s.d. of triplicate samples in a representative experiment
Triplicate reactions were vortexed and 100 μL was added in triplicate to a 96-well streptavidin flashplate (Perkin Elmer #SMP103001PK), which incubated overnight at 4 °C prior to reading.

[5] = tested on: uterus of ovariectomized mice; parameters: method as in PMID 15968821; details: cited from earlier work
[6] = number of 10 tumors at end of study, OP-1074 100 mg/kg oral twice daily, fulvestrant 100 mg/kg subcutaneous daily
[7] = MCF7, 168 h, read-out: MCF-7 IC50 proliferation (Fig. 3b)
[8] = MCF7, read-out: IC50 proliferation
[9] = MCF7, 22 h, read-out: IC50 inhibition of E2-stimulated transcription (Fig. 3a)
[10] = MCF7, 24 h, read-out: IC50 transcription

Compound	IC50 (MCF-7 cells; [7])	IC50 (MCF-7 cells; [8])	IC50 [3, 9]	IC50 [3, 10]	Relative ERα protein levels (% vehicle) (ERα)	IC50 (CAMA-1 cells)	Induction of AP activity (% E2) [1]	Maximal AP activity in agonist mode relative to E2 control ([1]; 3 days)	other results
C[C@]12CC[C@@H]3c4ccc(O)cc4C[C@@H](CCCCCCCCC[S+]([O-])CCCC(F)(F)C(F)(F)F)[C@H]3[C@@H]1CC[C@@H]2O (some centres unmarked) [fulvestrant, reference compound]	2.2 nM	2.5 ± 0.3 nM	6.3 nM	2 ± 0.2 nM		1.9 nM	0.05% ± 2.7 (n = 58) % E2		Tumors shrunk / growth inhibited by >50% (MCF7/HER2/neu tumors; [6]): 5/10; Tumors shrunk >80% (MCF7/HER2/neu tumors; [6]): 1/10; AP activity in agonist mode ([1]; 3 days, absence of E2, all doses tested): lacked any AP activity; IC50 ([2]; Homo sapiens, Ishikawa, 72 h, read-out: IC50 inhibition of E2-stimulated AP activity): 3 nM; Antagonism of E2-stimulated AP activity ([2]; Ishikawa cells): completely inhibited E2-stimulated AP activity
CC/C(=C(/c1ccc(/C=C/C(=O)O)cc1)c1ccc2[nH]ncc2c1)c1ccc(F)cc1Cl [GDC-0810]									Agonist effects in the uterus (uterus): mild to moderate agonist effects in the uterus
CC/C(=C(\c1ccc(O)cc1)c1ccc(OCCN(C)C)cc1)c1ccccc1 [4-OHT, (Z)-4-trans-hydroxytamoxifen]									Activation of AP (AP): 1.3 fold
CCNCCc1ccc(CN(CC)c2cc(OC)ccc2[C@@H]2CCc3cc(O)ccc3C2)cc1 [RAD1901]									Agonist effects in the uterus (uterus): mild to moderate agonist effects in the uterus
CC/C(=C(\c1ccc(O)cc1)c1ccc(OCCNC)cc1)c1ccccc1 [endoxifen, (Z)-4-hydroxy-N-desmethyltamoxifen, reference compound]		13 ± 2.2 nM		6.3 ± 1.3 nM	139% ± 34 (n = 20) % vehicle		73% ± 10 (n = 8) % E2	82%	AP activity remaining in antagonist mode ([2]; Ishikawa cells, 500 pM E2, 1 µM drug): 58%
CC/C(=C(\c1ccccc1)c1ccc(OCCN(C)C)cc1)c1ccccc1 [tamoxifen, reference compound]									Tumors shrunk below the initial tumor size (MCF7/HER2/neu tumors; end of study, 100 mg/kg tamoxifen daily by oral gavage): half

More lines, main results first:

IC50 (MCF-7 cells; [7])	IC50 (MCF-7 cells; [8])	IC50 [3, 9]	IC50 [3, 10]	Relative ERα protein levels (% vehicle) (ERα)	Compound	IC50 (CAMA-1 cells)	Induction of AP activity (% E2) [1]	Maximal AP activity in agonist mode relative to E2 control ([1]; 3 days)	other results
6.3 nM	5.2 ± 1.3 nM	4 nM	5.9 ± 2.1 nM	152% ± 31 (n = 4) % vehicle	CC1=C(c2ccc(O)cc2)[C@H](c2ccc(OCCN3CCCC3)cc2)Oc2cc(O)ccc21 [OP-1156]	4.2 nM	40% ± 7.8 (n = 3) % E2	40%	IC50 [4]: 6 nM and 6.13 nM; Uterine wet weight [5]: increased uterine wet weight
	5.5 ± 1.4 nM		1.3 ± 0.4 nM	319% ± 100 (n = 5) % vehicle	CC1=C(c2ccc(O)cc2)C(c2ccc(OCCN3CCC[C@@H]3C)cc2)Oc2cc(O)ccc21 (some centres unmarked) [OP-1047]		136% ± 15 (n = 4) % E2		
6.9 nM	6 ± 1.1 nM	4 nM	5.6 ± 2.1 nM	123% ± 22 (n = 4) % vehicle	CC1=C(c2ccc(O)cc2)[C@H](c2ccc(OCCN3CC[C@H](C)C3)cc2)Oc2cc(O)ccc21 [OP-1154]	8.1 nM	40% ± 6.5 (n = 3) % E2	39%	IC50 [4]: 14.3 ± 0.06 nM; Binding affinity relative to OP-1074 and OP-1156 (fold lower) ([4]; [3H]-E2 competitive binding): approximately 2 fold; Antagonism of E2-stimulated AP activity ([2]; Ishikawa cells): did not completely antagonize E2-stimulated AP activity
	6.4 ± 1 nM		0.5 ± 0.1 nM	119% ± 13 (n = 6) % vehicle	CC1=C(c2ccc(O)cc2)C(c2ccc(OCCN3CCC[C@H]3C)cc2)Oc2cc(O)ccc21 (some centres unmarked) [OP-1039]		49% ± 18 (n = 8) % E2		
